The structures appear in SMILES notation. Where two headings read alike, the source gives them in different places.

In one assay the test system is TNF. Description: PBMC assay: TNF cytokine level after LPS stimulation. Particulars: human PBMCs, 30 min compound, 100 ng/ml LPS for 6 hrs, MSD. The class given is cell-based. The method, then:
(§1) Peripheral venous blood was collected from healthy individuals and human peripheral blood mononuclear cells (PBMCs) were isolated from blood by Ficoll-Histopaque (Sigma-Aldrich, A0561) density gradient centrifugation. After isolation, PBMCs were stored in liquid nitrogen for later use. Upon thawing, PBMC cell viability was determined in growth medium (RPMI media supplemented with 10% fetal bovine serum, 1% Pen-Strep and 1% L-glutamine). Compounds were spotted in a 1:3 serial dilution in DMSO and diluted to the final concentration in 30 μl medium in 96 well plates (Falcon, 353072). PBMCs were added at a density of 7.5×10^4 cells per well and incubated for 30 min in a 5% CO2 incubator at 37° C. LPS stimulation was performed by addition of 100 ng/ml LPS (final concentration, Invivogen, tlrl-smlps) for 6 hrs followed by collection of cellular supernatant and the analysis of IL-1β (μM) and TNF cytokines levels (μM) via MSD technology according to manufacturers' guidelines (MSD, K151A0H).
(§2) IC50 and AC50 values (for […]) and EC50 and AC50 values (TNF) were obtained on compounds of the invention/examples, and the AC50 values are depicted in the following table: […]

A further assay relates to IL-1β. The assay can be described thus: PBMC assay: IL-1β release after LPS stimulation. Particulars: human PBMCs, 30 min compound, 100 ng/ml LPS for 6 hrs, MSD, read-out: IL1β AC50. The assay is classed as cell-based. The method, then: The activity of a compound according to the present invention can be assessed by in vitro methods.
as §1, §2

The term AC50 denotes the concentration giving half of the maximal activity seen. In the case of `CC(C)c1nn(CC(=O)Nc2ccc3nncn3n2)c(=O)c(Cl)c1OCC1CC1` [Compound 44, N-([1,2,4]triazolo[4,3-b]pyridazin-6-yl)-2-(5-chloro-4-(cyclopropylmethoxy)-3-isopropyl-6-oxopyridazin-1(6H)-yl)acetamide], the AC50 in the assay on TNF (PBMC) worked out at 3530 nM; in the assay with IL-1β (PBMC), 70 nM.

Take `COC(=O)C12CCC(NC(=O)Cn3nc(C(C)C)c(OCC(C)C)cc3=O)(CC1)CC2` [Compound 45]: the AC50 in the assay on TNF (PBMC) is above 20000 nM; with IL-1β (PBMC) it was 70 nM.

Regarding `CC(C)c1nn(CC(=O)Nc2ccc3nncn3n2)c(=O)c(Cl)c1OCC(C)(F)F` [Compound 46], the AC50 in the assay on TNF (PBMC) is 8170 nM; in the assay on IL-1β (PBMC), 80 nM.

As for `CC(C)COc1cc(=O)n(CC(=O)Nc2ccncc2)nc1C(C)C` [Compound 47], the results for the AC50 with TNF (PBMC) and in the assay with IL-1β (PBMC) were above 20000 nM and 80 nM, respectively.

`CCCOc1c(C(C)C)nn(CC(=O)Nc2ccc3nncn3n2)c(=O)c1Cl` [Compound 48]: the AC50 is 4980 nM with TNF (PBMC) and 90 nM with IL-1β (PBMC).

As to `CC(C)COc1cc(=O)n(CC(=O)Nc2ccc3nccn3n2)nc1C(C)C` [Compound 49], the concentration at half-maximal activity (AC50) in the assay with TNF (PBMC) was above 20000 nM; in the assay on IL-1β (PBMC) it was 90 nM.

With `CC(C)c1nn(CC(=O)Nc2ccc3nncn3n2)c(=O)c(Cl)c1OCCC(F)(F)F` [Compound 50], the half-maximal activity concentration (AC50) with TNF (PBMC) came to 1620 nM; in the assay with IL-1β (PBMC), 90 nM.

As to `CC(C)c1nn(CC(=O)Nc2ccc3nncn3n2)c(=O)cc1OCC1CC1` [Compound 51], the AC50 in the assay with TNF (PBMC) was above 20000 nM; in the assay with IL-1β (PBMC) it was 90 nM.

As for `CC(C)COc1cc(=O)n(CC(=O)Nc2ccncc2F)nc1C(C)C` [Compound 52], the AC50 with TNF (PBMC) is above 20000 nM; with IL-1β (PBMC) it was 90 nM.

As to `CC(C)COc1cc(=O)n(CC(=O)Nc2nc3ccccn3n2)nc1C(C)C` [Compound 53], the AC50 in the assay on TNF (PBMC) was above 20000 nM; in the assay with IL-1β (PBMC) it was 100 nM.

Regarding `Cc1c(OCC(C)C)c(C(C)C)nn(CC(=O)Nc2ccc3nncn3c2)c1=O` [Compound 54, N-([1,2,4]triazolo[4,3-a]pyridin-6-yl)-2-(4-isobutoxy-3-isopropyl-5-methyl-6-oxopyridazin-1(6H)-yl)acetamide], the AC50 was found to be 15600 nM in the assay with TNF (PBMC) and 100 nM with IL-1β (PBMC).

Regarding `CC(C)c1nn(CC(=O)Nc2ccc3nncn3n2)c(=O)cc1OCC(C)(F)F` [Compound 56], the results for the half-maximal activity concentration (AC50) with TNF (PBMC) and in the assay on IL-1β (PBMC) were above 20000 nM and 130 nM, respectively.

`CC(C)c1nn(CC(=O)Nc2ccc3nncn3n2)c(=O)cc1OCC1(F)CC1` [Compound 57]: the AC50 in the assay with TNF (PBMC) is above 20000 nM; with IL-1β (PBMC), 140 nM.

With `CC(C)COc1cc(=O)n(CC(=O)Nc2ccc3nncn3n2)nc1N(C)C` [Compound 58], the AC50 in the assay with TNF (PBMC) is above 10000 nM; in the assay on IL-1β (PBMC), 150 nM.

For `CC(C)COc1cc(=O)n(NC23CCC(O)(CC2)C3)nc1C(C)C` [Compound 59], the half-maximal activity concentration (AC50) in the assay with TNF is above 20000 nM; in the assay on IL-1β, 160 nM.

Turning to `CC(C)COc1c(C(C)C)nn(CC(=O)Nc2ccc3nncn3c2)c(=O)c1Cl` [Compound 60, N-([1,2,4]triazolo[4,3-a]pyridin-6-yl)-2-(5-chloro-4-isobutoxy-3-isopropyl-6-oxopyridazin-1(6H)-yl)acetamide], the values for the AC50 in the assay with TNF (PBMC) and with IL-1β (PBMC) were above 20000 nM and 160 nM, respectively.

In the case of `CC(C)COc1c(C(C)C)nn(CC(=O)Nc2ccc3nncn3c2)c(=O)c1F` [Compound 61], the AC50 in the assay with TNF (PBMC) was above 20000 nM; in the assay with IL-1β (PBMC), 160 nM.

Take `CC(C)COc1c(C(C)C)nn(CC(=O)Nc2ccc3nncn3n2)c(=O)c1C(F)F` [Compound 62]: the results for the AC50 in the assay on TNF (PBMC) and with IL-1β (PBMC) were 3750 nM and 180 nM, respectively.

As for `Cc1nccc(NC(=O)Cn2nc(C(C)C)c(OCC(C)C)cc2=O)c1F` [Compound 63], the AC50 with TNF (PBMC) is above 20000 nM; in the assay with IL-1β (PBMC), 190 nM.

Turning to `CC(C)c1nn(CC(=O)Nc2ccc3nncn3c2)c(=O)cc1OCC1(F)CC1` [Compound 64], the concentration at half-maximal activity (AC50) in the assay with TNF (PBMC) is above 20000 nM; in the assay with IL-1β (PBMC), 200 nM.

With `Cc1cc(NC(=O)Cn2nc(C(C)C)c(OCC(C)C)cc2=O)ccn1` [Compound 65], the AC50 in the assay on TNF (PBMC) was above 20000 nM; in the assay on IL-1β (PBMC), 210 nM.

For the origin of these results see patent US20240109905A1, “4-ALKOXY-6-OXO-PYRIDAZINE DERIVATIVES MODULATING NLRP3” (JANSSEN PHARMACEUTICA NV, priority 2021, published 2024).
